The record followed here is paper PMC8348142, “Antimicrobial Peptide Modifications against Clinically Isolated Antibiotic-Resistant Salmonella” (Molecules, 2021).

Ends that are not written are not given here.

In one assay the test system is clinical Salmonella isolates. Kind of assay: MIC, broth microdilution. It is filed as cell-based. The following applies: eight clinical Salmonella isolates; peptide 256–1 µM tested. The protocol: All 12 isolates of Salmonella used in this study were clinical isolates and anonymous left-overs from laboratory diagnoses. They were maintained in a 20% glycerol (Sigma-Aldrich) stock at −80 °C and further cultured on Mueller-Hinton agar (MHA, Oxoid, Hampshire, UK) at 37 °C for 18 h to obtain single colonies for antimicrobial assays. This study was approved by the Ethics Committee of the Faculty of Tropical Medicine (Mahidol University, Bangkok, Thailand; MUTM-EXMPT 2017-007).
MIC was determined using the broth microdilution method described by Hancock with some modifications. Briefly, bacterial colonies grown from the MHA were prepared in MHB (Oxoid) as a 0.5 McFarland suspension (which is equal to 1 × 10^8 CFU/mL), and was further 200-fold diluted by the MHB (5 × 10^5 CFU/mL). The bacterial suspension (50 µL) was mixed with 2-fold serial dilutions of peptide (5.5 µL) achieving final concentrations of 256 to 1 µM using a round-bottom polypropylene (PP) 96-well plate (Greiner Bio-One). The plate was incubated at 37 °C for 18 h including incubating peptide free-bacteria as positive growth control, and MHB as negative growth control. After the incubation, the lowest concentration with no visible growth was defined as a MIC value. The assay was performed in a duplicate manner.
In the case of “FIGAIARLLSKIF [BmKn-2, reference compound]”, the “MIC values, range over isolates” value is 64 to 256 µM.

Staying with this assay, now noted: isolate 5 (Enteritidis, blood; resistant AMP, SXT, KZ); MHB, 5 × 10^5 CFU/mL, 37 °C, 18 h, duplicate.
In turn, “LLKLFFPFLETGE [Pug-1, reference compound]” showed a minimum inhibitory concentration (MIC) of more than 256 µM.

“FIGAIARLLSK [BmKn-22, reference compound]”: the minimum inhibitory concentration (MIC) is more than 256 µM.

The substance “KLKLLLLLKLK-NH2 [KLK, reference compound]” displayed a minimal inhibitory concentration (MIC) of more than 256 µM.

“FIGAIARLLSKIF [BmKn-2, reference compound]”: the minimum inhibitory concentration (MIC) is 128 µM.

Substance FPSFLVGR [Pug-4, reference compound] gave a minimum inhibitory concentration (MIC) of more than 256 µM.

For the substance KLKLLLLLKL [KLK1, reference compound], the MIC is more than 256 µM.

The assay is the same for the next values; noted with them: isolate 7 (Typhimurium, blood; resistant AMP, CN, TE, NA, SXT); MHB, 5 × 10^5 CFU/mL, 37 °C, 18 h, duplicate.
Substance “LLKLFFPFLETGE [Pug-1, reference compound]” registered an MIC of more than 256 µM.

Substance “FIGAIARLLSK [BmKn-22, reference compound]” had an MIC of more than 256 µM.

“KLKLLLLLKLK-NH2 [KLK, reference compound]” showed an MIC of more than 256 µM.

Regarding “FIGAIARLLSKIF [BmKn-2, reference compound]”, the MIC is given as 128 µM.

Substance FPSFLVGR [Pug-4, reference compound] returned an MIC of more than 256 µM.

The substance KLKLLLLLKL [KLK1, reference compound] had a minimum inhibitory concentration (MIC) of more than 256 µM.

Still in this assay, the particulars now being: isolate 55 (Typhimurium, blood; resistant AMP, SXT, C, TE); MHB, 5 × 10^5 CFU/mL, 37 °C, 18 h, duplicate.
“LLKLFFPFLETGE [Pug-1, reference compound]” gave an MIC of more than 256 µM.

The substance “FIGAIARLLSK [BmKn-22, reference compound]” came in with an MIC of more than 256 µM.

The substance “KLKLLLLLKLK-NH2 [KLK, reference compound]” came in with an MIC of more than 256 µM.

The substance “FIGAIARLLSKIF [BmKn-2, reference compound]” came in with a minimal inhibitory concentration (MIC) of 256 µM.

As for FPSFLVGR [Pug-4, reference compound], the MIC is given as more than 256 µM.

In the case of KLKLLLLLKL [KLK1, reference compound], the MIC was more than 256 µM.

Staying with this assay, now noted: isolate 61 (Enteritidis, blood; resistant AMP, TE, NA, SXT); MHB, 5 × 10^5 CFU/mL, 37 °C, 18 h, duplicate.
Turning to “LLKLFFPFLETGE [Pug-1, reference compound]”, the MIC was more than 256 µM.

In the case of “FIGAIARLLSK [BmKn-22, reference compound]”, the MIC is on record as more than 256 µM.

In turn, “KLKLLLLLKLK-NH2 [KLK, reference compound]” returned an MIC of more than 256 µM.

In the case of “FIGAIARLLSKIF [BmKn-2, reference compound]”, the MIC came to 256 µM.

Consider FPSFLVGR [Pug-4, reference compound], for which the minimum inhibitory concentration (MIC) was more than 256 µM.

In turn, KLKLLLLLKL [KLK1, reference compound] returned an MIC of more than 256 µM.

The same assay, now with this note: isolate 69 (Typhimurium, stool; resistant AMP); MHB, 5 × 10^5 CFU/mL, 37 °C, 18 h, duplicate.
The substance “LLKLFFPFLETGE [Pug-1, reference compound]” came in with an MIC of more than 256 µM.

The substance “FIGAIARLLSK [BmKn-22, reference compound]” came in with an MIC of more than 256 µM.

“KLKLLLLLKLK-NH2 [KLK, reference compound]” registered an MIC of more than 256 µM.

“FIGAIARLLSKIF [BmKn-2, reference compound]”: the minimal inhibitory concentration (MIC) amounted to 256 µM.

FPSFLVGR [Pug-4, reference compound] showed an MIC of more than 256 µM.

Consider KLKLLLLLKL [KLK1, reference compound], for which the MIC is on record as more than 256 µM.

Staying with this assay, now noted: isolate 76 (Enteritidis, CSF; resistant NA); MHB, 5 × 10^5 CFU/mL, 37 °C, 18 h, duplicate.
The substance “LLKLFFPFLETGE [Pug-1, reference compound]” yielded a minimum inhibitory concentration (MIC) of more than 256 µM.

Consider “FIGAIARLLSK [BmKn-22, reference compound]”, for which the MIC is more than 256 µM.

Take “KLKLLLLLKLK-NH2 [KLK, reference compound]”: the MIC is listed as more than 256 µM.

In turn, “FIGAIARLLSKIF [BmKn-2, reference compound]” came in with a minimal inhibitory concentration (MIC) of 64 µM.

For FPSFLVGR [Pug-4, reference compound], the MIC is more than 256 µM.

KLKLLLLLKL [KLK1, reference compound] had a minimal inhibitory concentration (MIC) of more than 256 µM.

The assay is the same for the next values; noted with them: isolate 78 (Enteritidis, blood; resistant TE, CIP, NA, SXT); MHB, 5 × 10^5 CFU/mL, 37 °C, 18 h, duplicate.
In turn, “LLKLFFPFLETGE [Pug-1, reference compound]” yielded an MIC of more than 256 µM.

As to “FIGAIARLLSK [BmKn-22, reference compound]”, the minimum inhibitory concentration (MIC) is more than 256 µM.

For “KLKLLLLLKLK-NH2 [KLK, reference compound]”, the MIC is on record as more than 256 µM.

“FIGAIARLLSKIF [BmKn-2, reference compound]” came in with a minimum inhibitory concentration (MIC) of 128 µM.

FPSFLVGR [Pug-4, reference compound] showed a minimum inhibitory concentration (MIC) of more than 256 µM.

In turn, KLKLLLLLKL [KLK1, reference compound] came in with an MIC of more than 256 µM.

Staying with this assay, now noted: isolate 107 (Typhimurium, stool; susceptible); MHB, 5 × 10^5 CFU/mL, 37 °C, 18 h, duplicate.
“LLKLFFPFLETGE [Pug-1, reference compound]” displayed a minimum inhibitory concentration (MIC) of more than 256 µM.

On to “FIGAIARLLSK [BmKn-22, reference compound]”, for which the MIC is more than 256 µM.

“KLKLLLLLKLK-NH2 [KLK, reference compound]” had an MIC of more than 256 µM.

For the substance “FIGAIARLLSKIF [BmKn-2, reference compound]”, the MIC is reported as 64 µM.

FPSFLVGR [Pug-4, reference compound] yielded an MIC of more than 256 µM.

As for KLKLLLLLKL [KLK1, reference compound], the MIC is recorded as more than 256 µM.
